In one test the target is RET kinase V804M (Homo sapiens, UniProt P07949, V804M). Put plainly: RET Enzyme Assay (CisBio HTRF KinEASE-TK), V804M. It counts as biochemical. To be noted: read-out: RET V804M Enz FRET IC50.
Test [1] addresses T1, HEK-293 cells expressing a Kif5b-RET fusion protein (Homo sapiens, UniProt P07949).
T1 construct: KIF5B (N-terminal portion incl. coiled-coil); expressed in transfected cells; host or cells: HEK-293; the other entry of the earlier key: KIF5B (P33176, Kinesin-1 heavy chain)
T1 sequence (P07949 713-1063 limits assumed): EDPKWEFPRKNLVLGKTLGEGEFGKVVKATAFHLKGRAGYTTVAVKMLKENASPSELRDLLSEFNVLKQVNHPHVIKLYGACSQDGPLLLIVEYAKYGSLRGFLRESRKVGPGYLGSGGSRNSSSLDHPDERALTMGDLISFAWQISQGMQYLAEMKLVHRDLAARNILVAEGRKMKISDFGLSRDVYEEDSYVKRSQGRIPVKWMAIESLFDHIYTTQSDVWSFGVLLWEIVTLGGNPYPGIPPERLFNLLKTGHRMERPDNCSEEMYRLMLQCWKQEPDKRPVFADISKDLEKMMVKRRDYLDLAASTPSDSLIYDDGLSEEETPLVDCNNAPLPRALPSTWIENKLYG
In words: RET Cell Assay (phospho-RET Tyr1062). To be noted: HEK-293 Kif5b-RET, 1 hour incubation, phospho-RET normalized to GAPDH; read-out: KIF5B-RET pTYR1062 Cell IC50. The class given is cell-based. Put shortly: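 Phospho-RET (Tyr1062) to GAPDH ratio read by in-cell fluorescent immunodetection after 1 hour compound exposure in DMEM, 0.5% DMSO. Cells: HEK-293 carrying Kif5b-RET fusion. POC data fit to a 4-parameter logistic curve, IC50 taken at 50 POC.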

The target in test [2] is T2, HEK-293 cells expressing a G810R mutant RET Kif5b-RET fusion protein (Homo sapiens, UniProt P07949, G810R).
T2 construct: KIF5B (N-terminal portion incl. coiled-coil); expressed in transfected cells; host or cells: HEK-293; the other entry of the earlier key: KIF5B (P33176, Kinesin-1 heavy chain)
T2 sequence (P07949 713-1063 G810R limits assumed): T1 sequence (P07949 713-1063 limits assumed) with G98R
Put plainly: RET G810R Mutant Cell Assay (phospho-RET Tyr1062). The class given is cell-based. Conditions: HEK-293 Kif5b-RET G810R, 1 hour incubation, phospho-RET normalized to GAPDH. The method, boiled down:
(§1)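 Signals came from in-cell immunostaining of fixed, methanol-permeabilized HEK-293 fusion-expressing cells exposed 1 h to compound in DMEM with 0.5% DMSO.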

For test [3], the target named is T3, HEK-293 cells expressing a G810S mutant RET Kif5b-RET fusion protein (Homo sapiens, UniProt P07949, G810S).
T3 construct: KIF5B (N-terminal portion incl. coiled-coil); expressed in transfected cells; host or cells: HEK-293
T3 sequence (P07949 713-1063 G810S limits assumed): T1 sequence (P07949 713-1063 limits assumed) with G98S
In words: RET G810S Mutant Cell Assay (phospho-RET Tyr1062). It counts as cell-based. Conditions: HEK-293 Kif5b-RET G810S, 1 hour incubation, phospho-RET normalized to GAPDH. The method, boiled down: as §1

The target in the next test is RET kinase Wild Type (Homo sapiens, UniProt P07949). In words: biochemical.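 Also: HTRF kinase activity assay on RET enzyme, 1 h reaction at 22 °C, dual-wavelength readout as percent of control, DMSO-only wells as 100%, pre-quenched reactions as 0%.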
The next test concerns the target G810R mutant RET kinase (Homo sapiens, UniProt P07949, G810R). In words: biochemical.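 Also: HTRF KinEASE-TK enzymatic assay with 1 nM recombinant RET G810R, 1 h at 22 °C, dual-wavelength ratiometric readout, 100% control without compound, 0% from pre-quenched reactions.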
For a further test, the target named is G810S mutant RET kinase (Homo sapiens, UniProt P07949, G810S). In words: biochemical.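 Also: HTRF KinEASE-TK kinase assay with recombinant enzyme, 1 h at 22 °C, dual-wavelength ratiometric read-out, percent of control (DMSO-only = 100, pre-quenched reaction = 0).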

Numbering of substitutions follows the chain as printed.

Among the data in patent US11964988B2, “Fused heterocyclic compounds as RET kinase inhibitors” (ARRAY BIOPHARMA INC., priority 2018, dated 2024) are IC50 values, retold here.

Sequence of RET kinase V804M (P07949 29-1114 V804M): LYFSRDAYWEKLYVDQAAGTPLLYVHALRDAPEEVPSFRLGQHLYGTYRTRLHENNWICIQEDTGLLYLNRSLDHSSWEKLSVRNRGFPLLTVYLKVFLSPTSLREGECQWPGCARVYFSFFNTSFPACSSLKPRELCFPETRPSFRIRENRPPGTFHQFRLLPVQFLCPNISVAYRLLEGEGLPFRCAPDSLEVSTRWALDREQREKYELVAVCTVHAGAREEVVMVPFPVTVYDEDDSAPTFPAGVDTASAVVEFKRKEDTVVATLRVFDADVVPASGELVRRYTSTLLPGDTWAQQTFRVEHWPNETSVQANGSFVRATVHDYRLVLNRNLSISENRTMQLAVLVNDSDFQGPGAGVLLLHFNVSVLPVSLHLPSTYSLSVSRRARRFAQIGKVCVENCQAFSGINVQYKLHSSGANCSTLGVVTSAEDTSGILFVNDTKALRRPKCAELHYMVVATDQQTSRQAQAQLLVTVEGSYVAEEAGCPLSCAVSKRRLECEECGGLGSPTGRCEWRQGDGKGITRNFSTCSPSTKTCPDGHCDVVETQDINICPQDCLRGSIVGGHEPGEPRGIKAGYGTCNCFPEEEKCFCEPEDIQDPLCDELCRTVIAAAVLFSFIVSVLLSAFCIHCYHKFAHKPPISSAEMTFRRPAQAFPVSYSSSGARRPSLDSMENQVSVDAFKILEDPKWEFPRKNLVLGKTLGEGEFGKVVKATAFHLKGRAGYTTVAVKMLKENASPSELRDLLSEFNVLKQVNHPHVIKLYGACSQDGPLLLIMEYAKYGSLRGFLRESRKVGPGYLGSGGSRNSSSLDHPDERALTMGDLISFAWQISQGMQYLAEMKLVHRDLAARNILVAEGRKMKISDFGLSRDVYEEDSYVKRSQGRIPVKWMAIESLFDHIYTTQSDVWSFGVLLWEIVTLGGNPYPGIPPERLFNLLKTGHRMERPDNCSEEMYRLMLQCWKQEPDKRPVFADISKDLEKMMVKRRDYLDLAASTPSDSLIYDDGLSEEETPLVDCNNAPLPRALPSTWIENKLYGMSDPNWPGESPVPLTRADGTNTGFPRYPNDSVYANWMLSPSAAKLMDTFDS
Sequence of G810R mutant RET kinase (P07949 29-1114 G810R): as the sequence (P07949 29-1114 V804M) above, with M776V, G782R counted along it
Sequence of RET kinase Wild Type (P07949 29-1114): as the sequence (P07949 29-1114 V804M) above, with M776V counted along it
Sequence of G810S mutant RET kinase (P07949 29-1114 G810S): as the sequence (P07949 29-1114 V804M) above, with M776V, G782S counted along it

As for `CC(C)n1c2c(c3c(N)ncnc31)-c1noc(C3CC3)c1[C@@H](O)[C@H](C)C2` (relative stereo) [Example 62, (Trans)-11-amino-3-cyclopropyl-7-isopropyl-5-methyl-4,5,6,7-tetrahydroisoxazolo[4″,3″:6′,7′]cyclohepta[1′,2′:4,5]pyrrolo[2,3-d]pyrimidin-4-ol], the concentration for half-maximal inhibition (IC50) (commonly the midpoint of a concentration-inhibition curve) at RET kinase V804M came out at 138 nM; in test [1], 52 nM; in test [2], 349 nM; in test [3] it was 192 nM; at RET kinase Wild Type it was 34 nM; against G810R mutant RET kinase it was 96 nM. The same molecule gave an IC50 at G810S mutant RET kinase of 74 nM.

Take `CC(C)n1c2c(c3c(N)ncnc31)-c1noc(C3CC3)c1[C@@H](O)[C@@H](C)C2` (relative stereo) [Example 63, (Cis)-11-amino-3-cyclopropyl-7-isopropyl-5-methyl-4,5,6,7-tetrahydroisoxazolo[4″,3″:6′,7′]cyclohepta[1′,2′:4,5]pyrrolo[2,3-d]pyrimidin-4-ol]: the 50% inhibitory concentration (IC50) at RET kinase V804M worked out at 211 nM; in test [1] it was 72 nM; in test [2], 439 nM; in test [3] it was 352 nM; against RET kinase Wild Type, 61 nM; against G810R mutant RET kinase it was 118 nM. Besides, the IC50 on G810S mutant RET kinase amounted to 108 nM.

As to `CC(C)n1c2c(c3c(N)ncnc31)-c1noc(C3CC3)c1[C@@H](O)CC2` (single isomer, unassigned) [Example 54], the IC50 at RET kinase V804M stood at 41 nM; in test [1], 22 nM; in test [2], 103 nM; in test [3], 92 nM; against RET kinase Wild Type, 13 nM; against G810R mutant RET kinase, 70 nM. The molecule also showed an IC50 at G810S mutant RET kinase of 54 nM.

As to `CC(C)n1c2c(c3c(N)ncnc31)-c1noc(C3CC3)c1[C@H](O)CC2` (single isomer, unassigned) [Example 55], the 50% inhibitory concentration (IC50) on RET kinase V804M is 21 nM; in test [1], 10 nM; in test [2] it was 46 nM; in test [3], 40 nM; against RET kinase Wild Type, 8 nM; against G810R mutant RET kinase it was 31 nM. Besides, 29 nM corresponded to half-maximal inhibition against G810S mutant RET kinase (IC50).

As for `CO[C@@H]1CCc2c(c3c(N)ncnc3n2C(C)C)-c2noc(C3CC3)c21` (single isomer, unassigned) [Example 58], the 50% inhibitory concentration (IC50) at RET kinase V804M amounted to 66 nM; in test [1] it was 49 nM; in test [2] it was 186 nM; in test [3], 181 nM; against RET kinase Wild Type, 23 nM; on G810R mutant RET kinase, 64 nM. Besides, the 50% inhibitory concentration (IC50) at G810S mutant RET kinase turned out to be 159 nM.

For `CC(C)n1c2c(c3c(N)ncnc31)-c1noc(C3CC3)c1[C@@H](O)[C@H](C)C2` (single isomer, unassigned) [Example 64], the half-inhibitory concentration (IC50) turned out to be 182 nM on RET kinase V804M; 47 nM in test [1]; 119 nM in test [2]; 90 nM in test [3]; 39 nM on RET kinase Wild Type; 169 nM on G810R mutant RET kinase. The 50% inhibitory concentration (IC50) against G810S mutant RET kinase was found to be 76 nM.

With `CC(C)n1c2c(c3c(N)ncnc31)-c1noc(C3CC3)c1[C@H](O)[C@@H](C)C2` (single isomer, unassigned) [Example 65], the IC50 on RET kinase V804M is 163 nM; in test [1] it was 45 nM; in test [2] it was 621 nM; in test [3], 290 nM; against RET kinase Wild Type it was 43 nM; against G810R mutant RET kinase, 64 nM. Also, the concentration for half-maximal inhibition (IC50) against G810S mutant RET kinase came to 133 nM.

Regarding `Nc1ncnc2c1c1c(n2C2CCCC2)CCC(O)c2c-1noc2C1CC1` (single isomer, unassigned) [Example 124], the IC50 on RET kinase V804M was found to be 80 nM; in test [1], 19 nM; in test [2], 44 nM; in test [3] it was 33 nM; at RET kinase Wild Type, 24 nM; on G810R mutant RET kinase it was 89 nM. Inhibition against G810S mutant RET kinase was half-maximal at 49 nM (IC50).

In the case of `Nc1ncnc2c1c1c(n2C2CCCC2)CC[C@@H](O)c2c-1noc2C1CC1` (single isomer, unassigned) [Example 125], the IC50 at RET kinase V804M was found to be 19 nM; in test [1] it was 7 nM; in test [2] it was 16 nM; in test [3], 16 nM; on RET kinase Wild Type it was 11 nM; on G810R mutant RET kinase, 41 nM. The molecule further registered a half-maximal inhibitory concentration (IC50) against G810S mutant RET kinase of 19 nM.

Turning to `Nc1ncnc2c1c1c(n2C(CF)CF)CC[C@H](O)c2c-1noc2C1CC1` (single isomer, unassigned) [Example 126], the IC50 on RET kinase V804M is 30 nM; in test [1], 5 nM; in test [2], 29 nM; in test [3], 26 nM; against RET kinase Wild Type, 6 nM; on G810R mutant RET kinase, 15 nM. The same molecule had a 50% inhibitory concentration (IC50) on G810S mutant RET kinase of 9 nM.

Consider `Nc1ncnc2c1c1c(n2C(CF)CF)CC[C@@H](O)c2c-1noc2C1CC1` (single isomer, unassigned) [Example 127], for which the IC50 worked out at 21 nM at RET kinase V804M; 9 nM in test [1]; 57 nM in test [2]; 52 nM in test [3]; 6 nM at RET kinase Wild Type; 28 nM against G810R mutant RET kinase. Besides, the IC50 against G810S mutant RET kinase is 23 nM.

Take `C[C@H](n1c2c(c3c(N)ncnc31)-c1noc(C3CC3)c1[C@@H](O)CC2)C(F)(F)F` (single isomer, unassigned) [Example 146, 2,2,2-trifluoroacetate]: the IC50 is 87 nM on RET kinase V804M; 63 nM in test [1]; 98 nM in test [2]; 68 nM in test [3]; 26 nM at RET kinase Wild Type; 43 nM on G810R mutant RET kinase. Moreover, 116 nM corresponded to half-maximal inhibition on G810S mutant RET kinase (IC50).

In the case of `C[C@@H](n1c2c(c3c(N)ncnc31)-c1noc(C3CC3)c1[C@H](O)CC2)C(F)(F)F` (single isomer, unassigned) [Example 147, 2,2,2-trifluoroacetate], the IC50 on RET kinase V804M stood at 32 nM; in test [1], 21 nM; in test [2], 56 nM; in test [3], 90 nM; on RET kinase Wild Type, 14 nM; on G810R mutant RET kinase, 74 nM. This molecule came in with an IC50 against G810S mutant RET kinase of 94 nM.

As to `CC(C)n1c2c(c3c(N)ncnc31)-c1noc(C3CC3)c1C(=O)NC2` [Example 19, 11-amino-3-cyclopropyl-7-isopropyl-6,7-dihydroisoxazolo[4,3-c]pyrimido[5′,4′:4,5]pyrrolo[3,2-e]azepin-4(5H)-one 2,2,2-trifluoroacetate], the IC50 was determined as 202 nM on RET kinase V804M; 53 nM in test [1]; 262 nM in test [2]; 184 nM in test [3]; 45 nM against RET kinase Wild Type; 103 nM against G810R mutant RET kinase. Further, 215 nM corresponded to half-maximal inhibition against G810S mutant RET kinase (IC50).

Turning to `CC(C)n1c2c(c3c(N)ncnc31)-c1noc(C3CC3)c1C(=O)N(C)C2` [Example 20, 11-amino-3-cyclopropyl-7-isopropyl-5-methyl-6,7-dihydroisoxazolo[4,3-c]pyrimido[5′,4′:4,5]pyrrolo[3,2-e]azepin-4(5H)-one], the IC50 at RET kinase V804M came to 254 nM; in test [1] it was 28 nM; in test [2] it was 160 nM; in test [3], 111 nM; against RET kinase Wild Type it was 53 nM; on G810R mutant RET kinase, 135 nM. This molecule also showed a 50% inhibitory concentration (IC50) at G810S mutant RET kinase of 123 nM.
